Legend:
[1] = target: T1, human recombinant chemokine CCR8 receptor (Homo sapiens, UniProt P51685); assay: CCL1 SPA binding assay; conditions: inhibition of 125I CCL1 binding to CCR8 membranes from transfected CHO-K1 cells
T1 construct: purchased Euroscreen ES-136-M; host or cells: CHO-K1 cells (membranes)
Experimental: 1 μl of DMSO was added to the blank control wells and 1 μl unlabeled CCL1 (300 nM) was added to background control wells. 50 μl of the SPA bead-membrane mixture was added into each well. […] Plates were then incubated at RT with shaking (700 rpm) for 90 minutes followed by 30 minutes at RT without shaking. The plate was read in a Wallac MicroBeta counter for 2 minutes/well.

[2] = Human microsomal stability assay; format: in vitro ADME; conditions: human microsomes (Xenotech); human microsomes 1 mg protein/mL, compound 2.5 μM, NADPH 2 mM, pH 7.4, 37° C.; read-out: Intrinsic clearance
Experimental: Human Microsomal Stability Assay
Samples at four time-points (0, 5, 15 and 30 minutes) are withdrawn and the enzymatic reaction is terminated by protein precipitation with 1% acetic acid in acetonitrile. The incubations are performed on a thermostated plate (37° C.) placed on a Tecan worktable, and all liquid handling was performed robotically. After centrifugation of the samples, the supernatants are pooled in sets of four before they are analysed by liquid chromatography with tandem mass spectrometry detection (LC/MS/MS) using multiple reaction monitoring (MRM). Data are presented as intrinsic Clearance (CLint), μl/min/mg protein, calculated from the initial linear part of the compound disappearance curve.

T1 sequence (P51685 whole entry): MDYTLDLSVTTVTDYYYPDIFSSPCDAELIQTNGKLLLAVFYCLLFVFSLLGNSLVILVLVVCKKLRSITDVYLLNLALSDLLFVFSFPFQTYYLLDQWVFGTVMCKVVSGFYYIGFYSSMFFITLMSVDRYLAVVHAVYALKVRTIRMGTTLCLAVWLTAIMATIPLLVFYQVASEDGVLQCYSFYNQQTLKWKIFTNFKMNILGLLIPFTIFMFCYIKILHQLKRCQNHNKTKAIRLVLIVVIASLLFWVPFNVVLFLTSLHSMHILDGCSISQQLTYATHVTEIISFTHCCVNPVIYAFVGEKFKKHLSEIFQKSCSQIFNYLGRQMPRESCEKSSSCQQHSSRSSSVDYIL

IC50 [1] [nM]	microsomal CLint at 2.5 μM [2] [µL/min/mg]	SMILES
207	< 10	COc1ccccc1Oc1cccc(CN2CCC3(CC2)CCN(C(=O)c2ccc[n+]([O-])c2)CC3)c1 [Example 8, 3-[3-(2-methoxyphenoxy)benzyl]-9-[(1-oxidopyridin-3-yl)carbonyl]-3,9-diazaspiro[5.5]undecane]
	89	COc1ccccc1Oc1ccccc1CN1CCC2(CC1)CCN(C(=O)c1ccncc1)CC2 [X, 3-isonicotinoyl-9-[2-(2-methoxyphenoxy)benzyl]-3,9-diazaspiro[5.5]undecane, reference compound]
268	< 10	COc1ccccc1Oc1ccccc1CN1CCC2(CC1)CCN(C(=O)c1ccc[n+]([O-])c1)CC2 [Example 5, 3-[2-(2-methoxyphenoxy)benzyl]-9-[(1-oxidopyridin-3-yl)carbonyl]-3,9-diazaspiro[5.5]undecane]
	183	COc1ccccc1Oc1cccc(CN2CCC3(CC2)CCN(C(=O)c2ccncc2)CC3)c1 [Y, 3-isonicotinoyl-9-[3-(2-methoxyphenoxy)benzyl]-3,9-diazaspiro[5,5]undecane, reference compound]
305	< 10	O=C(c1cc[n+]([O-])cc1)N1CCC2(CCN(Cc3cccc(Oc4ccccc4)c3)CC2)CC1 [Example 2, 3-(1-oxidoisonicotinoyl)-9-(3-phenoxybenzyl)-3,9-diazaspiro[5.5]undecane]
87	< 10	COc1ccccc1Oc1ccccc1CN1CCC2(CC1)CCN(C(=O)c1cccc[n+]1[O-])CC2 [Example 3, 3-[2-(2-methoxyphenoxy)benzyl]-9-[(1-oxidopyridin-2-yl)carbonyl]-3,9-diazaspiro[5.5]undecane]
193	< 10	O=C(c1cccc[n+]1[O-])N1CCC2(CCN(Cc3cccc(Oc4ccccc4)c3)CC2)CC1 [Example 1, 3-[(1-oxidopyridin-2-yl)carbonyl]-9-(3-phenoxybenzyl)-3,9-diazaspiro[5.5]undecane]

SMILES	IC50 [1] [nM]	microsomal CLint at 2.5 μM [2] [µL/min/mg]
CC(C)COc1ccccc1CN1CCC2(CC1)CCN(C(=O)c1cc[n+]([O-])cc1)CC2 [A, 3-(2-isobutoxybenzyl)-9-(1-oxidoisonicotinoyl)-3,9-diazaspiro[5.5]undecane, reference compound]	2670	
COc1ccccc1Oc1ccccc1CN1CCC2(CC1)CCN(C(=O)c1cc[n+]([O-])cc1)CC2 [Example 4, 3-[2-(2-methoxyphenoxy)benzyl]-9-(1-oxidoisonicotinoyl)-3,9-diazaspiro[5.5]undecane]	117	< 10
CC(C)COc1ccccc1CN1CCC2(CC1)CCN(C(=O)c1ccc[n+]([O-])c1)CC2 [B, 3-(2-isobutoxybenzyl)-9-[(1-oxidopyridin-3-yl)carbonyl]-3,9-diazaspiro[5.5]undecane, reference compound]	3050	
